This note sets out measurements from BindingDB's records for doi:10.7270/Q2J101NV (Burnham Center For Chemical Genomics, 2010).

The assay concerns the target T1, Alkaline phosphatase, tissue-nonspecific isozyme (Homo sapiens, UniProt P05186).
T1 sequence (P05186 whole entry): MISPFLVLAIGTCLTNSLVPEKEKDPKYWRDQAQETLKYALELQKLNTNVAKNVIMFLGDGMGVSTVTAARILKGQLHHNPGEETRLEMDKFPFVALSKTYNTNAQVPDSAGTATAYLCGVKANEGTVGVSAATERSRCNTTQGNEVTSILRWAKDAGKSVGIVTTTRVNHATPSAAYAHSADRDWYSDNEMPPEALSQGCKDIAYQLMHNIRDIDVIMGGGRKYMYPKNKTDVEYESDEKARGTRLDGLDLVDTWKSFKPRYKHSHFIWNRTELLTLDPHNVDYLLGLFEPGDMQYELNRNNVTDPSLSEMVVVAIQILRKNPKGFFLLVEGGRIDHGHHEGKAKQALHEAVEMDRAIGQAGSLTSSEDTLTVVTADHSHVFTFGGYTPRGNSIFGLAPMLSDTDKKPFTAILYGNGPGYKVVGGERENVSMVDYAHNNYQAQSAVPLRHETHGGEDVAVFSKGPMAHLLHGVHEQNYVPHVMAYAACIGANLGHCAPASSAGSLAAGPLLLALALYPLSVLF
Kind of assay: TNAP enzyme activators, dose response, selectivity assay for mouse IAP activator project, biochemical, TNAP isozyme, mouse IAP uHTS hits (AID 488880).
On to `O=C(NN=CC1=CC(=O)C(=O)CC1)NN=CC1=CC(=O)C(=O)CC1` [1,3-bis[[(Z)-(3-hydroxy-4-oxocyclohexa-2,5-dien-1-ylidene)methyl]amino]urea], for which the half-maximal effective concentration (EC50) (as a rule, the midpoint of the concentration-response curve) came to 79.4 µM. For `CN(CCO)c1ccc(CN=Nc2ccc([N+](=O)[O-])cc2S(=O)(=O)Nc2ccccc2C(=O)O)cc1`, the concentration for a half-maximal effect (EC50) was 19.7 µM. The same measure for `C#CCOCCOCCOCCNc1nc(N2CCN(C(=O)CCCCCCCCCCNC(=O)[C@@H](CCC(=O)O)n3cc(CCCCCN)nn3)CC2)nc(N2CCN(C(=O)CCCCCCCCCCNC(=O)[C@H]([C@@H](C)CC)n3cc(CCCCCN)nn3)CC2)n1` [KI-KE]: more than 100 µM; for `O=C1CC(=O)c2c(O)cc(O)c(O)c2C1=O` [4,5,7,8-tetrahydroxy-1,2-naphthoquinone]: more than 100 µM.

As for `Cc1cc(=O)[nH]c(N=NCc2ccc(O)c(O)c2)n1` [MLS001194906], the midpoint of the response, the EC50, lay at 56.1 µM.
